Assay results taken from patent US20130005568A1, “SAFENED HERBICIDAL MIXTURES” (E.I. DU PONT DE NEMOURS AND COMPANY, priority 2011, published 2013).

How the values were obtained:
velvetleaf = assay: Test I: postemergence plant response rating; format: in vivo, Abutilon theophrasti Medik.; conditions: Compound 1 alone 125 g ai/ha; Test I plants
From the text: (§1) For all of the following biological tests, plant response ratings were based on a 0-100 scale where zero is growth equivalent to that of untreated plants (no plant response) and 100 represents no additional growth occurring after herbicide treatment.
(§2) Herbicide mixtures were formulated, dissolved/dispersed in water containing 0.25% non-ionic surfactant, and sprayed postemergence to the crop: soybean (Glycine max (L.) Merr.) at the 2-leaf growth stage and to weeds: lambsquarters (Chenopodium album L.) and velvetleaf (Abutilon theophrasti Medik.). Weed species were 5-10 cm tall when treated. Treated plants were grown under greenhouse conditions for two weeks before visual evaluations of plant responses were recorded.

Alexandergrass = assay: Test K: pasture grass postemergence plant response rating, field conditions; format: in vivo, Brachiaria plantaginea (Link) A. S. Hitchc.; conditions: Compound 1 alone 140 g ai/ha; Test K plants
From the text: as §1
Herbicide mixtures were formulated, dissolved/dispersed in water containing 0.25% non-ionic surfactant, and sprayed postemergence to the pasture grasses: Surinam grass (Brachiaria decumbens Stapf), palisade grass (Brachiaria brizantha (Hochst. ex A. Rich) Stapf) and Alexandergrass (Brachiaria plantaginea (Link) A. S. Hitchc.) approximately 10-30 cm tall (extended leaf height). This test was conducted under field conditions. Visual evaluations of plant responses were recorded four weeks after the plants were treated.

sugarcane = assay: Test J: sugarcane postemergence plant response rating, field conditions; format: in vivo, Saccharum officinarum L.; conditions: Compound 1 alone 140 g ai/ha; Test J
Procedure: as §1
Herbicide mixtures were formulated, dissolved/dispersed in water containing 0.25% non-ionic surfactant, and sprayed postemergence to sugarcane (Saccharum officinarum L.) approximately 20-40 cm tall (extended leaf height). This test was conducted under field conditions. Visual evaluations of plant responses were recorded four weeks after the plants were treated.

[1] = test system: Pioneer 39K40 hybrid maize; assay: Test B: visual plant response rating, postemergence herbicides with Compound 1 rate series; format: in vivo, Zea mays L. spp. indentata Sturt.; conditions: Compound 1 alone 125 g ai/ha; Test B
Procedure: as §1
Herbicide mixtures were dissolved/dispersed in a non-phytotoxic liquid carrier and were sprayed postemergence to Pioneer 39K40 hybrid maize (Zea mays L. spp. indentata Sturt.) in the third collar growth stage (extended leaf height was 50-60 cm). Treated plants were grown under greenhouse conditions for two weeks before visual evaluations of plant responses were recorded.

Creeping bentgrass = assay: Test G: turf grass and weed postemergence plant response rating; format: in vivo, Agrostis stoonoifera L.; conditions: Compound 1 alone 125 g ai/ha; Test G plants
From the text: as §1
(§3) Plants of the turf grass species: zoysia (Zoysia japonica Steud.), bermudagrass (Cynodon dactylon (L.) Pers.), tall fescue (Festuca arundinacea Shreib.), creeping bentgrass (Agrostis stoonoifera L.), perennial ryegrass (Lolium perenne L.) and hard fescue (Festuca species) were grown under greenhouse conditions for four months. Plants were clipped as needed to plant heights of 5-10 cm. Weeds typically found in turf: annual bluegrass (Poa annua L.), common chickweed (Stellaria media (L.) Vill.), large crabgrass (Digitaria sanguinales (L.) Scop.), dandelion (Taraxacum officinale Weber in Wiggers), goosegrass (Eleusine indica (L.) Gaertn.), henbit (Lamium amplexicaule L.), venice mallow (Hibiscus trionium L.) and purple nutsedge (Cyperus rotundus L.) were also grown under greenhouse conditions so that plants were 5-20 cm tall when they were treated. Herbicide mixtures were formulated, dissolved/dispersed in water containing 0.25% non-ionic surfactant, and sprayed postemergence to these turf grasses and weeds. Treated plants were grown under greenhouse conditions for three weeks before visual evaluations of plant responses were recorded.

spring wheat = assay: Test E: postemergence plant response rating; format: in vivo, Triticum aestivum L.; conditions: Compound 1 alone 125 g ai/ha; Test E plants
From the text: as §1
(§4) Herbicide mixtures were formulated, dissolved/dispersed in water containing 0.25% non-ionic surfactant, sprayed postemergence to the crops: winter wheat (Triticum aestivum L.), spring wheat (Triticum aestivum L.), winter barley (Hordeum vulgare L.) and spring barley (Hordeum vulgare L.), and the weeds: blackgrass (Alopecurus myosuroides Huds.), lambsquarters (Chenopodium album L.) and pigweed (Amaranthus retroflexus L.). Treated plants were grown under greenhouse conditions for two weeks before visual evaluations of plant responses were recorded.

winter wheat [2] = assay: Test E: postemergence plant response rating; format: in vivo, Triticum aestivum L.; conditions: Compound 1 alone 125 g ai/ha; Test E plants
From the text: as §1, §4

Venice mallow = assay: Test G: turf grass and weed postemergence plant response rating; format: in vivo, Hibiscus trionium L.; conditions: Compound 1 alone 125 g ai/ha; Test G plants
From the text: as §1, §3

Perennial ryegrass = assay: as above; format: in vivo, Lolium perenne L.; conditions: Compound 1 alone 125 g ai/ha; Test G plants
From the text: as §1, §3

Hard fescue = assay: as above; format: in vivo, Festuca species; conditions: Compound 1 alone 125 g ai/ha; Test G plants
From the text: as §1, §3

Tall fescue = assay: as above; format: in vivo, Festuca arundinacea Shreib.; conditions: Compound 1 alone 125 g ai/ha; Test G plants
From the text: as §1, §3

Annual bluegrass = assay: as above; format: in vivo, Poa annua L.; conditions: Compound 1 alone 125 g ai/ha; Test G plants
From the text: as §1, §3

Large crabgrass = assay: as above; format: in vivo, Digitaria sanguinales (L.) Scop.; conditions: Compound 1 alone 125 g ai/ha; Test G plants
From the text: as §1, §3

soybean = assay: Test I: postemergence plant response rating; format: in vivo, Glycine max (L.) Merr.; conditions: Compound 1 alone 125 g ai/ha; Test I plants
From the text: as §1, §2

Zoysia grass = assay: Test G: turf grass and weed postemergence plant response rating; format: in vivo, Zoysia japonica Steud.; conditions: Compound 1 alone 125 g ai/ha; Test G plants
From the text: as §1, §3

winter barley = assay: Test F: preemergence plant response rating; format: in vivo, Hordeum vulgare L.; conditions: Compound 1 alone 125 g ai/ha; Test F plants
From the text: as §1
(§5) Herbicide mixtures were formulated, dissolved/dispersed in water, and sprayed preemergence to the crops: winter wheat (Triticum aestivum L.) and winter barley (Hordeum vulgare L.), and the weed: blackgrass (Alopecurus myosuroides Huds). Treated plants were grown under greenhouse conditions for three weeks before visual evaluations of plant responses were recorded.

winter wheat [3] = assay: Test F: preemergence plant response rating; format: in vivo, Triticum aestivum L.; conditions: Compound 1 alone 125 g ai/ha; Test F plants
From the text: as §1, §5

sorghum hybrid WL09-6002 = test system: sorghum hybrid WL09-6002; design: species or system Sorghum bicolor (L.) Moench; conditions: in vivo
From the text: as §1
(§6) Cultivated sorghum varieties are generally very sensitive to acetohydroxy acid synthase-inhibiting herbicides such as rimsulfuron. To impart tolerance in sorghum hybrids WL09-6001 and WL09-6002 used in this test, plant breeders introduced a gene for acetohydroxy acid synthase (also known as acetolactate synthase) resistant to inhibition by certain acetohydroxy acid synthase-inhibiting herbicides, by breeding starting from a wild Sorghum genotype containing the resistance gene (see U.S. Patent Publication US 2008/0216187 A1).
(§7) Herbicide mixtures were formulated, dissolved/dispersed in water containing 1% crop oil concentrate, and sprayed postemergence to sorghum (Sorghum bicolor (L.) Moench) in the third collar growth stage (extended leaf height is 10-20 cm). Treated plants were grown under greenhouse conditions for two weeks before visual evaluations of plant responses were recorded.

sorghum hybrid WL09-6001 = test system: sorghum hybrid WL09-6001; design: species or system Sorghum bicolor (L.) Moench; conditions: in vivo
From the text: as §1, §6, §7

lambsquarters = assay: Test I: postemergence plant response rating; format: in vivo, Chenopodium album L.; conditions: Compound 1 alone 125 g ai/ha; Test I plants
From the text: as §1, §2

Measured: injury, Compound 1 alone

Cc1ccccc1S(=O)(=O)NC(N)=O [Compound 1, N-(aminocarbonyl)-2-methylbenzenesulfonamide]
no injury: all assays above
